Source: patent US9713651B2, “Compositions, methods, and systems for the synthesis and use of imaging agents” (Lantheus Medical Imaging, Inc., priority 2012, dated 2017)

Experiment: Tissue distribution of 18F imaging agents in rats
Type: in vivo, Male Sprague Dawley rats
Settings: rat, iv tail vein ~15 μCi, ± SEM; for Blood, imaging agent distribution at 15 min / Brain, imaging agent distribution at 15 min / Femur, imaging agent distribution at 15 min / Heart, imaging agent distribution at 15 min / Kidney, imaging agent distribution at 15 min / Liver, imaging agent distribution at 15 min / Lung, imaging agent distribution at 15 min / Muscle, imaging agent distribution at 15 min / Pancreas, imaging agent distribution at 15 min / Spleen, imaging agent distribution at 15 min: 15 min post injection; for Blood, imaging agent distribution at 60 min / Brain, imaging agent distribution at 60 min / Femur, imaging agent distribution at 60 min / Heart, imaging agent distribution at 60 min / Kidney, imaging agent distribution at 60 min / Liver, imaging agent distribution at 60 min / Lung, imaging agent distribution at 60 min / Muscle, imaging agent distribution at 60 min / Pancreas, imaging agent distribution at 60 min / Spleen, imaging agent distribution at 60 min: 60 min post injection
Procedure: Anesthetized (sodium pentobarbital at 50 mg/kg, ip or isoflurane gas inhalation) Male Sprague Dawley rats (250-350 g) received an iv injection of the imaging agent (˜15 μCi) via the tail vein. At 15 or 60 min post injection, the animals were euthanized and the required tissue samples harvested. All samples were then weighed and counted for radioactivity (Wallac Wizard 1480 or Packard Cobra II Autogamma); regional tissue uptake of the imaging agent was thus expressed as a percentage of the total injected dose per gram of tissue (% ID/g).
The generic structure depicted below highlights specific structural features evaluated during distribution experiments.

Row | Blood, imaging agent distribution at 15 min | Brain, imaging agent distribution at 15 min | Femur, imaging agent distribution at 15 min | Heart, imaging agent distribution at 15 min | Kidney, imaging agent distribution at 15 min | Liver, imaging agent distribution at 15 min | Lung, imaging agent distribution at 15 min | Muscle, imaging agent distribution at 15 min | Pancreas, imaging agent distribution at 15 min | Spleen, imaging agent distribution at 15 min | Blood, imaging agent distribution at 60 min | Brain, imaging agent distribution at 60 min | Femur, imaging agent distribution at 60 min | Heart, imaging agent distribution at 60 min | Kidney, imaging agent distribution at 60 min | Liver, imaging agent distribution at 60 min | Lung, imaging agent distribution at 60 min | Muscle, imaging agent distribution at 60 min | Pancreas, imaging agent distribution at 60 min | Spleen, imaging agent distribution at 60 min | SMILES
1 | 0.03 ± 0.01 % ID/g | 0.14 ± 0.05 % ID/g | 0.06 ± 0.02 % ID/g | 0.65 ± 0.36 % ID/g | 0.38 ± 0.08 % ID/g | 0.08 ± 0.03 % ID/g | 0.07 ± 0.01 % ID/g | 0.09 ± 0.04 % ID/g | 0.15 ± 0.05 % ID/g | 0.05 ± 0.01 % ID/g | 0.11 ± 0.02 % ID/g | 0.14 ± 0.03 % ID/g | 0.17 ± 0.04 % ID/g | 0.84 ± 0.22 % ID/g | 0.23 ± 0.03 % ID/g | 0.11 ± 0.02 % ID/g | 0.11 ± 0.02 % ID/g | 0.18 ± 0.04 % ID/g | 0.13 ± 0.03 % ID/g | 0.09 ± 0.02 % ID/g | CC(C)(C)n1ncc(OCc2cccc(COCCF)c2)c(Cl)c1=O [Example 67A]
2 | 0.49 ± 0.02 % ID/g |  | 0.80 ± 0.12 % ID/g | 1.66 ± 0.06 % ID/g | 2.25 ± 0.05 % ID/g | 2.33 ± 0.09 % ID/g | 0.49 ± 0.04 % ID/g | 0.19 ± 0.00 % ID/g |  | 0.41 ± 0.01 % ID/g | 0.26 ± 0.04 % ID/g |  | 0.78 ± 0.22 % ID/g | 1.58 ± 0.13 % ID/g | 1.17 ± 0.20 % ID/g | 1.34 ± 0.22 % ID/g | 0.27 ± 0.03 % ID/g | 0.15 ± 0.04 % ID/g |  | 0.20 ± 0.04 % ID/g | CC(C)(C)n1ncc(OCc2ccc(OCCOCCF)cc2)c(Cl)c1=O [Example 67B]
3 | 0.26 ± 0.05 % ID/g | 0.42 ± 0.01 % ID/g | 0.33 ± 0.01 % ID/g | 4.21 ± 0.29 % ID/g | 3.04 ± 0.21 % ID/g | 2.67 ± 0.17 % ID/g | 0.50 ± 0.08 % ID/g | 0.24 ± 0.04 % ID/g |  | 0.37 ± 0.05 % ID/g | 0.20 ± 0.07 % ID/g | 0.44 ± 0.03 % ID/g | 0.84 ± 0.07 % ID/g | 4.54 ± 0.29 % ID/g | 1.77 ± 0.25 % ID/g | 0.65 ± 0.12 % ID/g | 0.61 ± 0.32 % ID/g | 0.26 ± 0.02 % ID/g |  | 0.18 ± 0.02 % ID/g | CC(C)(C)n1ncc(OCc2ccc(OCCCF)c(Cl)c2)c(Cl)c1=O [Example 67C]
4 | 1.11 % ID/g | 0.74 % ID/g | 0.21 % ID/g | 3.63 % ID/g | 3.81 % ID/g | 3.61 % ID/g | 1.00 % ID/g | 0.14 % ID/g |  | 0.37 % ID/g | 1.00 % ID/g | 0.69 % ID/g | 0.26 % ID/g | 4.66 % ID/g | 1.71 % ID/g | 1.49 % ID/g | 0.96 % ID/g | 0.18 % ID/g |  | 0.23 % ID/g | CC(C)(C)n1ncc(OCc2ccc(OCCF)cc2)c(Cl)c1=O [Example 67D]
5 | 0.17 ± 0.02 % ID/g | 0.97 ± 0.11 % ID/g | 0.50 ± 0.04 % ID/g | 4.80 ± 0.27 % ID/g | 2.61 ± 0.18 % ID/g | 0.66 ± 0.09 % ID/g | 0.39 ± 0.05 % ID/g | 0.77 ± 0.09 % ID/g | 0.82 ± 0.07 % ID/g | 0.36 ± 0.08 % ID/g | 0.26 ± 0.03 % ID/g | 0.62 ± 0.04 % ID/g | 0.69 ± 0.05 % ID/g | 3.61 ± 0.45 % ID/g | 0.98 ± 0.04 % ID/g | 0.53 ± 0.06 % ID/g | 0.34 ± 0.03 % ID/g | 0.69 ± 0.17 % ID/g | 0.43 ± 0.05 % ID/g | 0.25 ± 0.01 % ID/g | [2H]C([2H])(OCCF)c1ccc(COc2cnn(C(C)(C)C)c(=O)c2Cl)cc1 [Example 67E]
6 | 0.32 ± 0.05 % ID/g | 0.50 ± 0.04 % ID/g | 0.44 ± 0.04 % ID/g | 1.92 ± 0.15 % ID/g | 1.04 ± 0.10 % ID/g | 0.40 ± 0.04 % ID/g | 0.41 ± 0.03 % ID/g | 0.60 ± 0.06 % ID/g | 0.52 ± 0.04 % ID/g | 0.28 ± 0.01 % ID/g | 0.48 ± 0.01 % ID/g | 0.38 ± 0.01 % ID/g | 0.57 ± 0.04 % ID/g | 0.87 ± 0.02 % ID/g | 0.60 ± 0.03 % ID/g | 0.39 ± 0.04 % ID/g | 0.44 ± 0.03 % ID/g | 0.43 ± 0.07 % ID/g | 0.48 ± 0.01 % ID/g | 0.31 ± 0.01 % ID/g | CC(C)(C)n1ncc(OCc2cccc(OCCF)c2)c(Cl)c1=O [Example 67F]
